As a reminder, the DC50 is the concentration giving 50% degradation. Read a high DC50 as degradation only at high concentration.

T1 sequence (P01116 1-188 isoform P01116-2 G12D): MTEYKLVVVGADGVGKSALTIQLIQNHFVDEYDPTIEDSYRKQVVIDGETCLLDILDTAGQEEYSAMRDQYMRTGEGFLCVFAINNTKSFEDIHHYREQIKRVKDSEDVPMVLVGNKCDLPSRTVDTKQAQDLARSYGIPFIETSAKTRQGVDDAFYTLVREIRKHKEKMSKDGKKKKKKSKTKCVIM

The experiment addresses T1, KRAS G12D (Homo sapiens, UniProt P01116, G12D).
T1 construct: host or cells: AsPC-1 human pancreatic cancer cells
Briefly: Test Example 1-2: KRAS degradation action in AsPC-1, Cell ELISA. In kind it is cell-based. The following applies: AsPC-1 cells, overnight treatment, corrected with β-actin, 0% = 10 μM Example No. 26 (Example No. 8 for Example Nos. 74 and 75). Here is the method: Test Example 1-2: Evaluation of KRAS Degradation Action on Human G12D Mutant KRAS-Positive Pancreatic Cancer Line AsPC-1
The KRAS degradation action of test compounds was evaluated by measuring the expression levels of KRAS G12D by Cell ELISA.
[…] As for the cell culture conditions, a RPMI 1640 medium containing 10% fetal bovine serum was used in the presence of 5% CO2 at 37° C. The next day, the test compounds (10 points having final concentrations in the range of 10 μM to 0.3 nM), the compound of Example No. 26 (Example No. 8 for Example Nos. 74 and 75) of a final concentration of 10 μM as a positive control and DMSO, which was the solvent for the test compounds, as a negative control were diluted 500-fold with a fresh medium and were added at 20 μL per well. The cells were cultured overnight.
The next day, the culture supernatant was removed, and 4% paraformaldehyde phosphate buffer (from FUJIFILM Wako Pure Chemical Corporation) was added at 20 μL per well. The plate was allowed to stand for 30 minutes at room temperature to thus immobilize the cells. Then, the supernatant was removed, and 0.1% Triton X-100 (from Amersham Biosciences)-containing PBS was added at 20 μL per well. After allowing to stand for 10 minutes at room temperature, the supernatant was removed. PBS was added at 25 μL per well, and the supernatant was removed to thus wash each well. The washing was performed twice in total. Next, the supernatant was removed, and 0.5% sodium dodecyl sulfate (SDS; from Invitrogen)-containing PBS was added at 20 μL per well. After allowing to stand at room temperature for 10 minutes, the supernatant was removed by centrifugation (using a centrifugal dehydrator machine, the supernatant was removed by the same method hereinafter). PBS was added at 25 μL per well, and the supernatant was removed to thus wash each well. The washing was performed twice in total. The supernatant was removed by centrifugation, and a blocking solution (Intercept Blocking Buffer) was added at 20 μL per well. After allowing to stand for 30 minutes at room temperature, the supernatant was removed by centrifugation, and a solution obtained by diluting an anti-Ras (G12D Mutant Specific) antibody and an anti-3-actin antibody 1,000-fold with a blocking solution was added at 20 μL per well as a primary antibody. The plate was allowed to stand overnight at 4° C.
The next day, the plate was centrifuged to remove the supernatant. PBS was added at […], and the supernatant was removed to thus wash each well. The washing was performed twice in total. The supernatant was removed by centrifugation, and a solution obtained by diluting Donkey anti-Mouse IgG H&L (TRDye 680RD) (from Li—COR Biosciences) and Goat anti-Rabbit IgG H&L (IRDye 800CW) (from Li—COR Biosciences) 1,000-fold with a blocking solution was added at 20 μL per well as a secondary antibody. After allowing to stand for 1 hour at room temperature, the supernatant was removed. PBS was added at 25 μL per well, and the supernatant was removed to thus wash each well. The washing was performed twice in total. After removing the supernatant by centrifuging the plate, the plate was dried as it was with air at room temperature for 2 hours or more, and the 700-nm and 800-nm fluorescent signals were measured with Aerius (from LI-COR Biosciences).
With the signaling value at the time of addition of DMSO corrected with the signaling value of β-actin taken as 100% and with the signaling value at the time of addition of 10 μM of the compound of Example No. 26 taken as 0%, the 50% degradation values (DC50) of the amounts of KRAS were calculated by Sigmoid-Emax model nonlinear regression analysis. The molecular weights of the test compounds were calculated as the molecular weights of the trihydrochloride for Example No. 30, the tetrahydrochloride for Example No. 46 and the free forms forming no salt for the remaining Example Nos. The results for some test compounds of the formula (I) are shown in Table 2.
(In general: An ELISA detects its analyte on a solid surface through an enzyme-linked reagent.)
`Cc1ncsc1-c1ccc([C@H](CO)NC(=O)[C@@H]2C[C@@H](O)CN2C(=O)[C@H](C(C)C)n2cc(-c3ccc(COc4c(-c5c(C)c(F)cc6[nH]ncc56)c(C5CC5)cc5c(N6C[C@@H]7C[C@H]6CN7)nc(OC[C@H]6CCOC6)nc45)cc3)nn2)cc1` [Example 51] had a DC50 of 11 nM. That is a double-digit nanomolar value.
In the case of `Cc1ncsc1-c1ccc([C@H](CO)NC(=O)[C@@H]2C[C@@H](O)CN2C(=O)[C@H](C(C)C)n2cc(-c3ccc(COc4c(-c5c(C)c(F)cc6[nH]ncc56)c(C5CC5)cc5c(N6C[C@@H]7C[C@H]6CN7)nc(OC[C@H]6CCOC6)nc45)cc3)nn2)cc1` [Example 52], half-maximal degradation (DC50) was put at 10 nM. The DC50 values of the last two molecules are within 1.5-fold of each other.
For `Cc1ncsc1-c1ccc([C@H](CO)NC(=O)[C@@H]2C[C@@H](O)CN2C(=O)[C@H](C(C)C)n2cc(-c3ccc(COc4c(-c5c(C)c(F)cc6[nH]ncc56)c(C5CC5)cc5c(N6C[C@@H]7C[C@H]6CN7)nc(OC[C@@H]6CCOC6)nc45)cc3)nn2)cc1` [Example 53] the value was 8 nM.
As for `COC[C@H](C)Oc1nc(N2C[C@@H]3C[C@H]2CN3)c2cc(C3CC3)c(-c3c(C)c(F)cc4[nH]ncc34)c(OCc3ccc(-c4cn([C@H](C(=O)N5C[C@H](O)C[C@H]5C(=O)N[C@@H](CO)c5ccc(-c6scnc6C)cc5)C(C)C)nn4)cc3)c2n1` [Example 54], the figure is 8 nM.
As for `COC[C@H](CN1CCOCC1)Oc1nc(N2C[C@@H]3C[C@H]2CN3)c2cc(C3CC3)c(-c3c(C)c(F)cc4[nH]ncc34)c(OCc3ccc(-c4cn([C@H](C(=O)N5C[C@H](O)C[C@H]5C(=O)N[C@@H](CO)c5ccc(-c6scnc6C)cc5)C(C)C)nn4)cc3)c2n1` [Example 55], the figure is 24 nM; as for `Cc1ncsc1-c1ccc([C@H](CO)NC(=O)[C@@H]2C[C@@H](O)CN2C(=O)[C@H](C(C)C)n2cc(-c3ccc(COc4c(-c5c(C)c(F)cc6[nH]ncc56)c(C5CC5)cc5c(N6C[C@@H]7C[C@H]6CN7)nc(OC[C@@H]6CCCN6C)nc45)cc3)nn2)cc1` [Example 57], 134 nM.
Regarding `CO[C@@H](C)COc1nc(N2C[C@@H]3C[C@H]2CN3)c2cc(C3CC3)c(-c3c(C)c(F)cc4[nH]ncc34)c(OCc3ccc(-c4cn([C@H](C(=O)N5C[C@H](O)C[C@H]5C(=O)N[C@@H](CO)c5ccc(F)cc5)C(C)C)nn4)cc3)c2n1` [Example 58], half-maximal degradation (DC50) was put at 37 nM.
For `CO[C@@H](C)COc1nc(N2C[C@@H]3C[C@H]2CN3)c2cc(C3CC3)c(-c3c(C)c(F)cc4[nH]ncc34)c(OCc3ccc(-c4cn([C@H](C(=O)N5C[C@H](O)C[C@H]5C(=O)N[C@@H](CO)c5ccc(N6CCOC6=O)cc5)C(C)C)nn4)cc3)c2n1` [Example 59] the value was 45 nM; for `Cc1ncsc1-c1ccc([C@H](CO)NC(=O)[C@@H]2C[C@@H](O)CN2C(=O)[C@H](C(C)C)n2cc(-c3ccc(COc4c(-c5c(C)c(F)cc6[nH]ncc56)c(C5CC5)cc5c(N6C[C@@H]7C[C@H]6CN7)nc(OC[C@H]6CCCN6C)nc45)cc3)nn2)cc1` [Example 60], 102 nM; for `Cc1ncsc1-c1ccc([C@H](CO)NC(=O)[C@@H]2C[C@@H](O)CN2C(=O)[C@H](C(C)C)n2cc(-c3ccc(COc4c(-c5c(C)c(F)cc6[nH]ncc56)c(C5CC5)cc5c(N6C[C@@H]7C[C@H]6CN7)nc(OCC6(CO)CC6)nc45)cc3)nn2)cc1` [Example 61], 21 nM.
In turn, `COCC1(COc2nc(N3C[C@@H]4C[C@H]3CN4)c3cc(C4CC4)c(-c4c(C)c(F)cc5[nH]ncc45)c(OCc4ccc(-c5cn([C@H](C(=O)N6C[C@H](O)C[C@H]6C(=O)N[C@@H](CO)c6ccc(-c7scnc7C)cc6)C(C)C)nn5)cc4)c3n2)CC1` [Example 62] gave a half-maximal degradation concentration (DC50) of 10 nM.
As for `Cc1c(F)cc2[nH]ncc2c1-c1c(C2CC2)cc2c(N3C[C@@H]4C[C@H]3CN4)nc(OC3CCOCC3)nc2c1OCc1ccc(-c2cn([C@H](C(=O)N3C[C@H](O)C[C@H]3C(=O)N[C@@H](CO)c3cccc(F)c3)C(C)C)nn2)cc1` [Example 63], the figure is 70 nM; as for `Cc1ncsc1-c1ccc([C@H](CO)NC(=O)[C@@H]2C[C@@H](O)CN2C(=O)[C@H](C(C)C)n2cc(-c3ccc(COc4c(-c5c(C)c(F)cc6[nH]ncc56)c(C5CC5)cc5c(N6C[C@@H]7C[C@H]6CN7)nc(OC[C@H](C)N6CCCC6)nc45)cc3)nn2)cc1` [Example 64], 48 nM; as for `Cc1ncsc1-c1ccc([C@H](CO)NC(=O)[C@@H]2C[C@@H](O)CN2C(=O)[C@H](C(C)C)n2cc(-c3ccc(COc4c(-c5c(C)c(F)cc6[nH]ncc56)c(C5CC5)cc5c(N6C[C@@H]7C[C@H]6CN7)nc(OC[C@H](C)N6CCOCC6)nc45)cc3)nn2)cc1` [Example 65], 14 nM.
As for `Cc1ncsc1-c1ccc([C@H](CO)NC(=O)[C@@H]2C[C@@H](O)CN2C(=O)[C@H](C(C)C)n2cc(-c3ccc(COc4c(-c5c(C)c(F)cc6[nH]ncc56)c(C5CC5)cc5c(N6C[C@@H]7C[C@H]6CN7)nc(NCCO)nc45)cc3)nn2)cc1` [Example 66], the figure is 250 nM.
`Cc1c(F)cc2[nH]ncc2c1-c1c(C2CC2)cc2c(N3C[C@@H]4C[C@H]3CN4)nc(OC3CCOCC3)nc2c1OCc1ccc(-c2cn([C@H](C(=O)N3C[C@H](O)C[C@H]3C(=O)N[C@@H](CO)c3cccc(S(C)(=O)=O)c3)C(C)C)nn2)cc1` [Example 67] yielded a 50% degradation concentration (DC50) of 840 nM.
The molecule `Cc1ncsc1-c1ccc([C@@H](CO)NC(=O)[C@@H]2C[C@@H](O)CN2C(=O)[C@H](C(C)C)n2cc(-c3ccc(COc4c(-c5c(C)c(F)cc6[nH]ncc56)c(C5CC5)cc5c(N6C[C@@H]7C[C@H]6CN7)nc(OC6CCOCC6)nc45)cc3)nn2)cc1` [Example 68] returned a half-maximal degradation concentration (DC50) of 1390 nM.
The molecule `Cc1c(F)cc2[nH]ncc2c1-c1c(C2CC2)cc2c(N3C[C@@H]4C[C@H]3CN4)nc(OC3CCOCC3)nc2c1OCc1ccc(-c2cn([C@H](C(=O)N3C[C@H](O)C[C@H]3C(=O)N[C@@H](CO)c3ccc(-n4ccnc4C)cc3)C(C)C)nn2)cc1` [Example 69] yielded a 50% degradation concentration (DC50) of 31 nM.
For `CCn1nccc1-c1ccc([C@H](CO)NC(=O)[C@@H]2C[C@@H](O)CN2C(=O)[C@H](C(C)C)n2cc(-c3ccc(COc4c(-c5c(C)c(F)cc6[nH]ncc56)c(C5CC5)cc5c(N6C[C@@H]7C[C@H]6CN7)nc(OC[C@H](C)OC)nc45)cc3)nn2)cc1` [Example 70] the value was 14 nM; for `CO[C@@H](C)COc1nc(N2C[C@@H]3C[C@H]2CN3)c2cc(C3CC3)c(-c3c(C)c(F)cc4[nH]ncc34)c(OCc3ccc(-c4cn([C@H](C(=O)N5C[C@H](O)C[C@H]5C(=O)N[C@@H](CO)c5ccc(-n6ccnc6C)cc5)C(C)C)nn4)cc3)c2n1` [Example 71], 35 nM; for `CO[C@@H](C)COc1nc(N2C[C@@H]3C[C@H]2CN3)c2cc(C3CC3)c(-c3c(C)c(F)cc4[nH]ncc34)c(OCc3ccc(-c4cn([C@H](C(=O)N5C[C@H](O)C[C@H]5C(=O)N[C@@H](CO)c5ccc(-c6ocnc6C)cc5)C(C)C)nn4)cc3)c2n1` [Example 72], 16 nM.
Molecule `Cc1ncsc1-c1ccc([C@H](CO)NC(=O)[C@@H]2C[C@@H](O)CN2C(=O)[C@H](C2CC2)n2cc(-c3ccc(COc4c(-c5c(C)c(F)cc6[nH]ncc56)c(C5CC5)cc5c(N6C[C@@H]7C[C@H]6CN7)nc(OC6CCOCC6)nc45)cc3)nn2)cc1` [Example 73] came in with a DC50 of 134 nM. Compared with the last molecule, the DC50 is about 8.4-fold higher.

These data come from US20250340561A1, “QUINAZOLINE COMPOUND FOR INDUCING DEGRADATION OF G12D MUTANT KRAS PROTEIN” (Astellas Pharma Inc., priority 2021, published 2025).
